Literature values as cited in patent US12661351B2, “Stable liquid compositions of posaconazole” (INVENGENE PRIVATE LIMITED, priority 2020, dated 2026).
Where two headings read alike, the source gives them in different places.

Solubility (aqueous solutions at pH>4): less than 1 mcg/ml | Solubility (strong acidic (aqueous) solutions of pH 1 or lower): about 790 mcg/ml
Compound: CC[C@@H]([C@H](C)O)n1ncn(-c2ccc(N3CCN(c4ccc(OC[C@@H]5CO[C@@](Cn6cncn6)(c6ccc(F)cc6F)C5)cc4)CC3)cc2)c1=O [Posaconazole]
